# Data as given in patent US11946070B2, “Method of reinforcing efficacy of stem cells using ethionamide” (SAMSUNG LIFE PUBLIC WELFARE FOUNDATION, priority 2019, dated 2024).
# Legend:
# [1] = test system: human umbilical cord mesenchymal stem cells; conditions: ethionamide 50 or 100 μM; FIG. 4B
# Experimental: (§1) First, a 3 to 4 cm piece of umbilical cord tissue was fragmented, and treated with a collagenase solution (Gibco, USA) for 60 to 90 minutes to digest an extracellular matrix, followed by digestion with 0.25% trypsin (Gibco, USA) for 30 minutes at 37° C. Subsequently, cells were obtained by adding fetal bovine serum (FBS; Biowest, USA) to the resulting product, and then performing centrifugation at 1000×g for 10 minutes, and then cultured using Minimum Essential Media (MEM; Gibco, USA) supplemented with 10% FBS and 50 μg/ml gentamycin (Gibco, USA) at 37° C. in a 5% CO2 atmosphere, and thus mesenchymal stem cells at passage 5 or 6 were used for an experiment.
# (§2) 6×10^3 cells/cm 2 of the human umbilical cord mesenchymal stem cells prepared according to the method of Example 1 were seeded in a cell culture container, and simultaneously, ethionamide was treated at a concentration of 50 μM, 100 μM or 150 μM, followed by culturing for 72 hours.
# Subsequently, the mesenchymal stem cells were treated with ethionamide by the same method as described above, and mRNA expression levels of antioxidation-related factors, such as HO-1, NQO1, GCLC and GCLM were measured.
# [2] = test system: human umbilical cord mesenchymal stem cells; conditions: ethionamide 50 or 100 μM; FIG. 4A
# Experimental: as §1, §2
# To verify whether the expression level of a paracrine factor of mesenchymal stem cells is changed by ethionamide treatment, the mesenchymal stem cells were treated with ethionamide at 50 or 100 μM, and then expression levels of a brain-derived neurotrophic factor (BDNF), a vascular endothelial cell growth factor (VEGF), insulin-like growth factor-1 (IGF-1) and a hepatocyte growth factor (HGF), which are known as paracrine factors, were measured.
smiles,measurement,setting,value
"CCc1cc(C(N)=S)ccn1 [ethionamide, 2-ethylpyridine-4-carbothioamide]",GCLC mRNA expression level,[1],significantly increases in proportion to the treated concentration of ethionamide
same,GCLM mRNA expression level,[1],significantly increases in proportion to the treated concentration of ethionamide
same,HO-1 mRNA expression level,[1],significantly increases in proportion to the treated concentration of ethionamide
same,NQO1 mRNA expression level,[1],significantly increases in proportion to the treated concentration of ethionamide
same,BDNF expression level,[2],increases in proportion to the treated concentration of ethionamide
same,HGF expression level,[2],increases in proportion to the treated concentration of ethionamide
same,IGF-1 expression level,[2],increases in proportion to the treated concentration of ethionamide
same,VEGF expression level,[2],increases in proportion to the treated concentration of ethionamide
